From patent US20240041042A1, “1-(PYRIDYL)-5-AZINYLPYRAZOLE DERIVATIVES, AND THEIR USE FOR CONTROL OF UNDESIRED PLANT GROWTH” (Bayer Aktiengesellschaft, priority 2020, published 2024)
Like-named read-outs stand apart in the source and are kept apart here.

Columns and labels:
Assay type in all cases: in vivo
[1] = test system: Alopecurus myosuroides (ALOMY); assay: Pre-emergence herbicidal action against ALOMY; conditions: scored visually after about 3 weeks, 100% = plants have died
Text: (§1) Seeds of monocotyledonous and dicotyledonous weed plants and crop plants are placed in plastic or organic planting pots and covered with soil. The compounds of the invention, formulated in the form of wettable powders (WP) or as emulsion concentrates (EC), are then applied to the surface of the covering soil as aqueous suspension or emulsion with addition of 0.5% additive at a water application rate equivalent to 600 l/ha. After the treatment, the pots are placed in a greenhouse and kept under good growth conditions for the trial plants. After about 3 weeks, the effect of the preparations is scored visually in comparison with untreated controls as percentages. For example, 100% activity=the plants have died, 0% activity=like control plants.
(§2) Tables A1 to A13 below show the effects of selected compounds of the general formula (I) on various harmful plants and at an application rate corresponding to 320 g/ha or lower, which were obtained by the experimental procedure mentioned above. The appendices “a”, “b” and “c” give differentiation by dosage used with otherwise the same harmful plants tested.

[2] = test system: Amaranthus retroflexus (AMARE); assay: Pre-emergence herbicidal action against AMARE; conditions: visual scoring after about 3 weeks vs untreated controls
Text: as §1, §2

Avena fatua (AVEFA) [3] = assay: Pre-emergence herbicidal action against AVEFA; conditions: 320 g/ha, visual scoring after about 3 weeks vs untreated controls
Text: as §1, §2

[4] = test system: Echinochloa crus-galli (ECHCG); assay: Pre-emergence herbicidal action against ECHCG; conditions: dosage 320 g/ha
Text: as §1, §2

Lolium rigidum (LOLRI) [5] = assay: Pre-emergence herbicidal action against LOLRI
Text: as §1, §2

[6] = test system: Pharbitis purpurea (PHBPU); assay: Pre-emergence herbicidal action against PHBPU; conditions: dosage 320 g/ha
Text: as §1, §2

[7] = test system: Polygonum convolvulus (POLCO); assay: Pre-emergence herbicidal action against POLCO
Text: as §1, §2

Setaria viridis (SETVI) [8] = assay: Pre-emergence herbicidal action against SETVI
Text: as §1, §2

Viola tricolor (VIOTR) [9] = assay: Pre-emergence herbicidal action against VIOTR
Text: as §1, §2

[10] = test system: Abutilon theophrasti (ABUTH); assay: Post-emergence herbicidal action against ABUTH; conditions: visual rating about 3 weeks after treatment vs untreated controls (100% = plants have died, 0% = like control plants)
Description: (§3) Seeds of monocotyledonous and dicotyledonous weeds and crop plants are placed in sandy loam in plastic or organic planting pots, covered with soil and cultivated in a greenhouse under controlled growth conditions. 2 to 3 weeks after sowing, the test plants are treated at the one-leaf stage. The compounds of the invention, formulated in the form of wettable powders (WP) or as emulsion concentrates (EC), are then sprayed onto the green parts of the plants as aqueous suspension or emulsion with addition of 0.5% additive at a water application rate of 600 l/ha (converted). After the test plants have been kept in the greenhouse under optimum growth conditions for about 3 weeks, the activity of the preparations is rated visually in comparison to untreated controls. For example, 100% activity=the plants have died, 0% activity=like control plants.
(§4) Tables B1 to B13 below show the effects of selected compounds of the general formula (I) according to Table 1 on various harmful plants and at an application rate corresponding to 320 g/ha or lower, which were obtained by the experimental procedure mentioned above. The appendices “a”, “b” and “c” give differentiation by dosage used with otherwise the same harmful plants tested.

[11] = test system: Alopecurus myosuroides (ALOMY); assay: Post-emergence herbicidal action against ALOMY; conditions: visual rating about 3 weeks after treatment vs untreated controls (100% = plants have died, 0% = like control plants)
Description: as §3, §4

[12] = test system: Amaranthus retroflexus (AMARE); assay: Post-emergence herbicidal action against AMARE
Description: as §3, §4

Avena fatua (AVEFA) [13] = assay: Post-emergence herbicidal action against AVEFA; conditions: visual rating about 3 weeks after treatment
Description: as §3, §4

[14] = test system: Echinochloa crus-galli (ECHCG); assay: Post-emergence herbicidal action against ECHCG; conditions: dosage 320 g/ha
Description: as §3, §4

Lolium rigidum (LOLRI) [15] = assay: Post-emergence herbicidal action against LOLRI
Description: as §3, §4

[16] = test system: Polygonum convolvulus (POLCO); assay: Post-emergence herbicidal action against POLCO
Description: as §3, §4

Setaria viridis (SETVI) [17] = assay: Post-emergence herbicidal action against SETVI; conditions: dosage 320 g/ha
Description: as §3, §4

[18] = test system: Verconica persica (VERPE); assay: Post-emergence herbicidal action against VERPE; conditions: 320 g/ha, VERPE
Description: as §3, §4

Viola tricolor (VIOTR) [19] = assay: Post-emergence herbicidal action against VIOTR
Description: as §3, §4

Oryza sativa (ORYSA) = conditions: crop plant compatibility
Description: as §3
(§5) The observed effects on selected crop plants are reported here in comparison to the untreated controls (values in %). The appendices “a”, “b” and “c” give differentiation by dosage used with otherwise the same crop plants tested.

Zea mays (ZEAMX) = conditions: for Post-emergence action against ZEAMX in %: crop plant compatibility, 80 g/ha, effect vs untreated controls
Description: as §3, §5

[20] = test system: Verconica persica (VERPE); assay: Pre-emergence herbicidal action against VERPE; conditions: dosage 320 g/ha
Text: as §1, §2

[21] = 80 g/ha, effect in comparison to untreated controls

Post-emergence action against ORYSA in % (Oryza sativa (ORYSA); [21]) [%] | Post-emergence action against ZEAMX in % (Zea mays (ZEAMX)) [%] | Compound | Pre-emergence action against ALOMY ([1]; 80 g/ha) [%] | Pre-emergence action against ALOMY ([1]; 320 g/ha) [%] | Pre-emergence action against AMARE in % ([2]; 80 g/ha) [%] | Pre-emergence action against AMARE in % ([2]; 320 g/ha) [%] | Pre-emergence action against AVEFA in % (Avena fatua (AVEFA) [3]) [%] | Pre-emergence action against LOLRI in % (Lolium rigidum (LOLRI) [5]; dosage 80 g/ha) [%] | Pre-emergence action against LOLRI in % (Lolium rigidum (LOLRI) [5]; dosage 320 g/ha) [%] | Pre-emergence action against PHBPU in % [6] [%] | Pre-emergence action against POLCO in % ([7]; dosage 320 g/ha) [%] | Pre-emergence action against SETVI in % (Setaria viridis (SETVI) [8]; dosage 320 g/ha) [%] | Pre-emergence action against VIOTR in % (Viola tricolor (VIOTR) [9]; 320 g/ha, Viola tricolor) [%] | Pre-emergence action against VIOTR in % (Viola tricolor (VIOTR) [9]; dosage 80 g/ha) [%] | Post-emergence action against ALOMY in % ([11]; 80 g/ha) [%] | Post-emergence action against AVEFA in % (Avena fatua (AVEFA) [13]; 80 g/ha) [%] | Post-emergence action against LOLRI in % (Lolium rigidum (LOLRI) [15]; dosage 80 g/ha) [%] | Post-emergence action against POLCO in % ([16]; dosage 80 g/ha) [%] | other results
0 | 0 | COC(=O)C(C)NC(=O)[C@@H](C)Oc1nn(-c2ccccn2)c(-c2ccc(F)nc2)c1Cl (some centres unmarked) [Example I-358] | 80 | 100 | 80 | 100 | 80 | 100 | 100 | 80 | 90 | 100 | 100 | 80 | 90 | 90 | 90 | 90 | Pre-emergence action against ECHCG in % [4]: 100%; Pre-emergence action against POLCO in % ([7]; dosage 80 g/ha): 80%; Post-emergence action against ABUTH in % ([10]; 320 g/ha): 80%; Post-emergence action against ALOMY in % ([11]; 320 g/ha): 90%; Post-emergence action against AMARE in % ([12]; 320 g/ha, visual rating about 3 weeks after treatment): 90%; Post-emergence action against AVEFA in % (Avena fatua (AVEFA) [13]; 320 g/ha): 90%; Post-emergence action against ECHCG in % [14]: 90%; Post-emergence action against LOLRI in % (Lolium rigidum (LOLRI) [15]; dosage 320 g/ha): 90%; Post-emergence action against POLCO in % ([16]; dosage 320 g/ha): 90%; Post-emergence action against SETVI in % (Setaria viridis (SETVI) [17]): 90%; Post-emergence action against VERPE in % [18]: 80%; Post-emergence action against VIOTR in % (Viola tricolor (VIOTR) [19]; 80 g/ha): 90%; Post-emergence action against VIOTR in % (Viola tricolor (VIOTR) [19]; 320 g/ha): 90%; Post-emergence action against ORYSA in % (Oryza sativa (ORYSA); 320 g/ha, effect in comparison to untreated controls): 0%
0 | 20 | CCOC(=O)C(C)Oc1nn(-c2ccccn2)c(-c2ccc(F)nc2)c1Br (centres unmarked) [Example I-102] | 100 | 100 | 80 | 90 | 90 | 80 | 100 | 80 | 90 | 100 | 100 | 90 | 90 | 90 | 90 | 90 | Pre-emergence action against SETVI in % (Setaria viridis (SETVI) [8]; dosage 80 g/ha): 90%; Pre-emergence action against VERPE in % [20]: 80%; Post-emergence action against ABUTH in % ([10]; 80 g/ha): 80%; Post-emergence action against AMARE in % ([12]; 80 g/ha, visual rating about 3 weeks after treatment vs untreated controls (100% = plants have died, 0% = like control plants)): 80%; Post-emergence action against ORYSA in % (Oryza sativa (ORYSA); 20 g/ha, effect vs untreated controls): 0%; Post-emergence action against ZEAMX in % (crop plant compatibility) (Zea mays (ZEAMX); 20 g/ha, ZEAMX, effect in comparison to untreated controls): 0%
